# From ChEMBL document CHEMBL3885861, “Open TG-GATES”
# Species: Rattus norvegicus
# Test: Open TG-GATES - Regimen: Single
# Assay type: toxicity, organism-based, Sprague-Dawley
# Set-up: regimen Single, gender Male, age 6 weeks
# Conditions: in vivo, po, 30 mg/kg, route gavage, dose level Low; for APTT / Bas / Eos / Fbg / Hb / Ht / Lym / MCH / MCHC / MCV / Mono / Neu / PT / Plat / RBC / Ret / WBC: tissue Blood; for KIDNEY_L / KIDNEY_R / KIDNEY_TOTAL: tissue Kidney; for LIVER: tissue Liver; for A/G / ALP / ALT / AST / BUN / CRE / Ca / Cl / DBIL / GLC / IP / K / LDH / Na / PL / RALB / TBIL / TC / TG / TP / gamma-GTP: tissue Plasma
smiles,measurement,setting,value
CCCNC(=O)NS(=O)(=O)c1ccc(Cl)cc1 [CHLORPROPAMIDE],TERMINAL_BW,3 h,200 g
same,APTT,3 h,16.8 s
same,Bas,3 h,0.4%
same,Eos,3 h,0.8%
same,Fbg,3 h,301.8 mg/dL
same,Hb,3 h,13.1 g/dL
same,Ht,3 h,40%
same,Lym,3 h,76.8%
same,MCH,3 h,20.9 pg
same,MCHC,3 h,32.7%
same,MCV,3 h,64 fL
same,Mono,3 h,3.6%
same,Neu,3 h,17.8%
same,PT,3 h,15.6 s
same,Plat,3 h,122.9 x10_4/uL
same,RBC,3 h,625.4 x10_4/ul
same,Ret,3 h,9.8%
same,WBC,3 h,80.3 x10_2/uL
same,KIDNEY_L,3 h,0.9 g
same,KIDNEY_R,3 h,0.9 g
same,KIDNEY_TOTAL,3 h,1.8 g
same,LIVER,3 h,8.7 g
same,A/G,3 h,0.9
same,ALP,3 h,1308.8 IU/L
same,ALT,3 h,44 IU/L
same,AST,3 h,74.4 IU/L
same,BUN,3 h,10.6 mg/dL
same,CRE,3 h,0.2 mg/dL
same,Ca,3 h,10.8 mg/dL
same,Cl,3 h,106.2 meq/L
same,DBIL,3 h,0.008 mg/dL
same,GLC,3 h,154.4 mg/dL
same,IP,3 h,9.5 mg/dL
same,K,3 h,4 meq/L
same,LDH,3 h,83.6 IU/L
same,Na,3 h,143 meq/L
same,PL,3 h,131.4 mg/dL
same,RALB,3 h,2.5 g/dL
same,TBIL,3 h,0.038 mg/dL
same,TC,3 h,74.2 mg/dL
same,TG,3 h,47.2 mg/dL
same,TP,3 h,5.4 g/dL
same,gamma-GTP,3 h,1.2 IU/L
same,TERMINAL_BW,6 h,197.5 g
same,APTT,6 h,17.5 s
same,Bas,6 h,0.2%
same,Eos,6 h,1%
same,Fbg,6 h,277.8 mg/dL
same,Hb,6 h,13.3 g/dL
same,Ht,6 h,40.8%
same,Lym,6 h,74.4%
same,MCH,6 h,21 pg
same,MCHC,6 h,32.7%
same,MCV,6 h,64.3 fL
same,Mono,6 h,2.8%
same,Neu,6 h,20.4%
same,PT,6 h,15.4 s
same,Plat,6 h,114.9 x10_4/uL
same,RBC,6 h,633.4 x10_4/ul
same,Ret,6 h,9.6%
same,WBC,6 h,80.6 x10_2/uL
same,KIDNEY_L,6 h,0.9 g
same,KIDNEY_R,6 h,0.9 g
same,KIDNEY_TOTAL,6 h,1.8 g
same,LIVER,6 h,8.1 g
same,A/G,6 h,0.9
same,ALP,6 h,1395.6 IU/L
same,ALT,6 h,41 IU/L
same,AST,6 h,75.4 IU/L
same,BUN,6 h,9 mg/dL
same,CRE,6 h,0.2 mg/dL
same,Ca,6 h,10.5 mg/dL
same,Cl,6 h,106.8 meq/L
same,DBIL,6 h,0.004 mg/dL
same,GLC,6 h,150.8 mg/dL
same,IP,6 h,9.4 mg/dL
same,K,6 h,4.2 meq/L
same,LDH,6 h,72.6 IU/L
same,Na,6 h,143 meq/L
same,PL,6 h,123.6 mg/dL
same,RALB,6 h,2.5 g/dL
same,TBIL,6 h,0.036 mg/dL
same,TC,6 h,74.2 mg/dL
same,TG,6 h,35.4 mg/dL
same,TP,6 h,5.2 g/dL
same,gamma-GTP,6 h,1 IU/L
same,TERMINAL_BW,9 h,194.6 g
same,APTT,9 h,16.9 s
same,Bas,9 h,0%
same,Eos,9 h,1.2%
same,Fbg,9 h,296 mg/dL
same,Hb,9 h,13.2 g/dL
same,Ht,9 h,40.5%
same,Lym,9 h,77.4%
same,MCH,9 h,21.4 pg
same,MCHC,9 h,32.6%
same,MCV,9 h,65.5 fL
same,Mono,9 h,3.2%
same,Neu,9 h,17.2%
same,PT,9 h,15.4 s
same,Plat,9 h,118 x10_4/uL
same,RBC,9 h,618.6 x10_4/ul
same,Ret,9 h,9.1%
same,WBC,9 h,84.5 x10_2/uL
same,KIDNEY_L,9 h,0.9 g
same,KIDNEY_R,9 h,0.9 g
same,KIDNEY_TOTAL,9 h,1.7 g
same,LIVER,9 h,7.7 g
same,A/G,9 h,0.9
same,ALP,9 h,1280.4 IU/L
same,ALT,9 h,38 IU/L
same,AST,9 h,70.8 IU/L
same,BUN,9 h,9.8 mg/dL
same,CRE,9 h,0.2 mg/dL
same,Ca,9 h,10.6 mg/dL
same,Cl,9 h,107.8 meq/L
same,DBIL,9 h,0.002 mg/dL
same,GLC,9 h,158.4 mg/dL
same,IP,9 h,9.8 mg/dL
same,K,9 h,4.1 meq/L
same,LDH,9 h,62.2 IU/L
same,Na,9 h,143.4 meq/L
same,PL,9 h,134 mg/dL
same,RALB,9 h,2.5 g/dL
same,TBIL,9 h,0.032 mg/dL
same,TC,9 h,81.4 mg/dL
same,TG,9 h,43.4 mg/dL
same,TP,9 h,5.4 g/dL
same,gamma-GTP,9 h,1 IU/L
same,TERMINAL_BW,24 h,210.7 g
same,APTT,24 h,26 s
same,Bas,24 h,0%
same,Eos,24 h,1%
same,Fbg,24 h,290 mg/dL
same,Hb,24 h,13 g/dL
same,Ht,24 h,40.1%
same,Lym,24 h,79.2%
same,MCH,24 h,21.4 pg
same,MCHC,24 h,32.4%
same,MCV,24 h,65.9 fL
same,Mono,24 h,3%
same,Neu,24 h,15.2%
same,PT,24 h,15.6 s
same,Plat,24 h,120.5 x10_4/uL
same,RBC,24 h,608.2 x10_4/ul
same,Ret,24 h,8.4%
same,WBC,24 h,96.6 x10_2/uL
same,KIDNEY_L,24 h,0.9 g
same,KIDNEY_R,24 h,0.9 g
same,KIDNEY_TOTAL,24 h,1.9 g
same,LIVER,24 h,9.6 g
same,A/G,24 h,0.9
same,ALP,24 h,1710 IU/L
same,ALT,24 h,47.6 IU/L
same,AST,24 h,73 IU/L
same,BUN,24 h,15 mg/dL
same,CRE,24 h,0.2 mg/dL
same,Ca,24 h,10.8 mg/dL
same,Cl,24 h,105.4 meq/L
same,DBIL,24 h,0.01 mg/dL
same,GLC,24 h,192.8 mg/dL
same,IP,24 h,8.4 mg/dL
same,K,24 h,4.1 meq/L
same,LDH,24 h,78.4 IU/L
same,Na,24 h,142.4 meq/L
same,PL,24 h,150.2 mg/dL
same,RALB,24 h,2.6 g/dL
same,TBIL,24 h,0.034 mg/dL
same,TC,24 h,84 mg/dL
same,TG,24 h,73.8 mg/dL
same,TP,24 h,5.5 g/dL
same,gamma-GTP,24 h,1 IU/L
